The values below come from US7608718B2, “4,5-dihydro-1H-pyrazole derivatives having potent CB1-antagonistic activity” (Solvay Pharmaceuticals B.V., priority 2001, dated 2009).

A word on the melting point: it is the temperature, or range, at which the solid turns liquid. `CSC(=NS(=O)(=O)N(C)C)N1CC(c2ccccc2)C(c2ccc(Cl)cc2)=N1` (stereo not drawn) [Example 36, 3-(4-Chlorophenyl)-N-((dimethylamino)sulfonyl)-4-phenyl-4,5-dihydro-1H-pyrazole-1-carboximidothioic acid methyl ester] came in with a melting point of 159 to 160 °C. With `CCN(CC)S(=O)(=O)N=C(SC)N1CC(c2ccccc2)C(c2ccc(Cl)cc2)=N1` (stereo not drawn) [Example 37, 3-(4-Chlorophenyl)-N-((diethylamino)sulfonyl)-4-phenyl-4,5-dihydro-1H-pyrazole-1-carboximidothioic acid methyl ester] the figure was 141 to 143 °C; with `CSC(=NS(=O)(=O)N1CCc2ccccc2C1)N1CC(c2ccccc2)C(c2ccc(Cl)cc2)=N1` (stereo not drawn) [Example 38, 3-(4-Chlorophenyl)-4-phenyl-N-((1,2,3,4-tetrahydroisoquinolin-2-yl)sulfonyl)-4,5-dihydro-1H-pyrazole-1-carboximidothioic acid methyl ester], 143 to 145 °C. The result for `CCN(c1ccccc1)S(=O)(=O)N=C(SC)N1CC(c2ccccc2)C(c2ccc(Cl)cc2)=N1` (stereo not drawn) [Example 39, 3-(4-Chlorophenyl)-N-(((ethyl)phenylamino)sulfonyl)-4-phenyl-4,5-dihydro-1H-pyrazole-1-carboximidothioic acid methyl ester] reads 143 to 146 °C; that for `CCN(C)S(=O)(=O)N=C(SC)N1CC(c2cccnc2)C(c2ccc(Cl)cc2)=N1` (stereo not drawn) [Example 44, 3-(4-Chlorophenyl)-N-(((ethyl)methylamino)sulfonyl)-4-(pyridin-3-yl)-4,5-dihydro-1H-pyrazole-1-carboximidothioic acid methyl ester], 133 to 136 °C. The result for `CSC(=NS(=O)(=O)N1CCCCC1)N1CC(c2cccnc2)C(c2ccc(Cl)cc2)=N1` (stereo not drawn) [Example 45, 3-(4-Chlorophenyl)-N-((piperidin-1-yl)sulfonyl)-4-(pyridin-3-yl)-4,5-dihydro-1H-pyrazole-1-carboximidothioic acid methyl ester] reads 182 to 185 °C; that for `CSC(=NS(=O)(=O)N1CCOCC1)N1CC(c2ccccc2F)C(c2ccc(Cl)cc2)=N1` (stereo not drawn) [Example 47, 3-(4-Chlorophenyl)-4-(2-fluorophenyl)-N-((morpholin-4-yl)sulfonyl)-4,5-dihydro-1H-pyrazole-1-carboximidothioic acid methyl ester], 205 to 207 °C. `CSC(=NS(=O)(=O)N1CCCCC1)N1CC(c2ccccc2F)C(c2ccc(Cl)cc2)=N1` (stereo not drawn) [Example 48, 3-(4-Chlorophenyl)-4-(2-fluorophenyl)-N-((piperidin-1-yl)sulfonyl)-4,5-dihydro-1H-pyrazole-1-carboximidothioic acid methyl ester] returned a melting point of 196 to 198 °C. `CSC(=NS(=O)(=O)N1CCOCC1)N1CC(c2c(F)cccc2F)C(c2ccc(Cl)cc2)=N1` (stereo not drawn) [Example 50, 3-(4-Chlorophenyl)-4-(2,6-difluorophenyl)-N-((morpholin-4-yl)sulfonyl)-4,5-dihydro-1H-pyrazole-1-carboximidothioic acid methyl ester]: the melting point is 231 to 233 °C. The molecule `CSC(=NS(=O)(=O)N1CCCCC1)N1CC(c2c(F)cccc2F)C(c2ccc(Cl)cc2)=N1` (stereo not drawn) [Example 51, 3-(4-Chlorophenyl)-4-(2,6-difluorophenyl)-N-((piperidin-1-yl)sulfonyl)-4,5-dihydro-1H-pyrazole-1-carboximidothioic acid methyl ester] yielded a melting point of 221 to 225 °C. As to `CSC(=NS(=O)(=O)N1CCS(=O)(=O)CC1)N1CC(c2ccccc2)C(c2ccc(Cl)cc2)=N1` (stereo not drawn) [Example 53, 3-(4-Chlorophenyl)-N-((1,1-dioxidothiomorpholin-4-yl)sulfonyl)-4-phenyl-4,5-dihydro-1H-pyrazole-1-carboximidothioic acid methyl ester], the melting point lay within 216 to 217 °C. With `O=S(=O)(N=C(NC1CC1)N1CC(c2ccccc2)C(c2ccc(Cl)cc2)=N1)N1CCCCC1` (stereo not drawn) [Example 56, 3-(4-Chlorophenyl)-N-cyclopropyl-4-phenyl-N′-((piperidin-1-yl)sulfonyl)-4,5-dihydro-1H-pyrazole-1-carboxamidine] the figure was 142 to 144 °C; with `CCN(CC)S(=O)(=O)N=C(NC)N1CC(O)(c2ccccc2)C(c2ccc(Cl)cc2)=N1` (stereo not drawn) [Example 57, 3-(4-Chlorophenyl)-N′-((diethylamino)sulfonyl)-N-methyl-4-hydroxy-4-phenyl-4,5-dihydro-1H-pyrazole-1-carboxamidine], 180 to 182 °C. The result for `CCN(CC)S(=O)(=O)N=C(NC)N1CC(c2ccccc2)C(c2ccc(Cl)s2)=N1` (stereo not drawn) [Example 58, 3-(5-Chlorothien-2-yl)-N′-((diethylamino)sulfonyl)-N-methyl-4-phenyl-4,5-dihydro-1H-pyrazole-1-carboxamidine] reads 122 to 123 °C. With `CC(C)NC(=NS(=O)(=O)N(C)C)N1CC(c2ccccc2)C(c2ccc(Cl)cc2)=N1` (stereo not drawn) [Example 59, 3-(4-Chlorophenyl)-N′-((dimethylamino)sulfonyl)-N-isopropyl-4-phenyl-4,5-dihydro-1H-pyrazole-1-carboxamidine] the figure was 169 to 170 °C; with `CN1CCC(NC(=NS(=O)(=O)N(C)C)N2CC(c3ccccc3)C(c3ccc(Cl)cc3)=N2)CC1` (stereo not drawn) [Example 60, 3-(4-Chlorophenyl)-N′-((dimethylamino)sulfonyl)-N-(1-methylpiperidin-4-yl)-4-phenyl-4,5-dihydro-1H-pyrazole-1-carboxamidine], 144 to 146 °C; with `CCN(CC)S(=O)(=O)N=C(N(C)C)N1CC(O)(c2ccccc2)C(c2ccc(Cl)cc2)=N1` (stereo not drawn) [Example 63, 3-(4-Chlorophenyl)-N′-((diethylamino)sulfonyl)-N,N-dimethyl-4-hydroxy-4-phenyl-4,5-dihydro-1H-pyrazole-1-carboxamidine], 135 to 137 °C.

Turning to `CCN(CC)S(=O)(=O)N=C(N(C)C)N1CC(c2ccccc2)C(c2ccc(F)cc2)=N1` (stereo not drawn) [Example 64, N′-((Diethylamino)sulfonyl)-N,N-dimethyl-3-(4-fluorophenyl)-4-phenyl-4,5-dihydro-1H-pyrazole-1-carboxamidine], the melting point was in the range of 159 to 160 °C. The result for `CCNC(=NS(=O)(=O)N(CC)CC)N1CC(O)(c2ccccc2)C(c2ccc(Cl)cc2)=N1` (stereo not drawn) [Example 68, 3-(4-Chlorophenyl)-N′-((diethylamino)sulfonyl)-N-ethyl-4-hydroxy-4-phenyl-4,5-dihydro-1H-pyrazole-1-carboxamidine] reads 162 to 165 °C; that for `CCN(CC)S(=O)(=O)N=C(NC)N1CC(c2ccncc2)C(c2ccc(Cl)cc2)=N1` (stereo not drawn) [Example 71, N′-((Diethylamino)sulfonyl)-3-(4-chlorophenyl)-N-methyl-4-(pyridin-4-yl)-4,5-dihydro-1H-pyrazole-1-carboxamidine], 109 to 111 °C.

Take `CNC(=NS(=O)(=O)N(C)C)N1CC(c2cccnc2)C(c2ccc(Cl)cc2)=N1` (stereo not drawn) [Example 72, 3-(4-Chlorophenyl)-N′-((dimethylamino)sulfonyl)-N-methyl-4-(pyridin-3-yl)-4,5-dihydro-1H-pyrazole-1-carboxamidine]: the melting point fell in the range of 157 to 159 °C. As for `CNC(=NS(=O)(=O)N(C)C)N1CC(c2ccncc2)C(c2ccc(Cl)cc2)=N1` (stereo not drawn) [Example 74, 3-(4-Chlorophenyl)-N′-((dimethylamino)sulfonyl)-N-methyl-4-(pyridin-4-yl)-4,5-dihydro-1H-pyrazole-1-carboxamidine], the melting point was 178 to 182 °C.

For the molecule `CNC(=NS(=O)(=O)N1CCCCC1)N1CC(c2cccnc2)C(c2ccc(Cl)cc2)=N1` (stereo not drawn) [Example 78, 3-(4-Chlorophenyl)-N-methyl-N′-((piperidin-1-yl)sulfonyl)-4-(pyridin-3-yl)-4,5-dihydro-1H-pyrazole-1-carboxamidine], the melting point was 174 to 177 °C. Take `CNC(=NS(=O)(=O)N1CCOCC1)N1CC(c2c(F)cccc2F)C(c2ccc(Cl)cc2)=N1` (stereo not drawn) [Example 79, 3-(4-Chlorophenyl)-4-(2,6-difluorophenyl)-N-methyl-N′-((morpholin-4-yl)sulfonyl)-4,5-dihydro-1H-pyrazole-1-carboxamidine]: the melting point fell in the range of 223 to 235 °C. `CNC(=NS(=O)(=O)N(C)C)N1CC(c2c(F)cccc2F)C(c2ccc(Cl)cc2)=N1` (stereo not drawn) [Example 80, 3-(4-Chlorophenyl)-4-(2,6-difluorophenyl)-N′-((dimethylamino)sulfonyl)-N-methyl-4,5-dihydro-1H-pyrazole-1-carboxamidine] gave a melting point of 214 to 216 °C.

Turning to `CNC(=NS(=O)(=O)N1CCCCC1)N1CC(c2c(F)cccc2F)C(c2ccc(Cl)cc2)=N1` (stereo not drawn) [Example 81, 3-(4-Chlorophenyl)-4-(2,6-difluorophenyl)-N-methyl-N′-((piperidin-1-yl)sulfonyl)-4,5-dihydro-1H-pyrazole-1-carboxamidine], the melting point lay within 260 to 263 °C. The result for `CNC(=NS(=O)(=O)N1CCCCC1)N1CC(c2cccc(F)c2)C(c2ccc(Cl)cc2)=N1` (stereo not drawn) [Example 82, 3-(4-Chlorophenyl)-4-(3-fluorophenyl)-N-methyl-N′-((piperidin-1-yl)sulfonyl)-4,5-dihydro-1H-pyrazole-1-carboxamidine] reads 170 °C; that for `CNC(=NS(=O)(=O)N1CCCCC1)N1CC(c2ccccc2F)C(c2ccc(Cl)cc2)=N1` (stereo not drawn) [Example 83, 3-(4-Chlorophenyl)-4-(2-fluorophenyl)-N-methyl-N′-((piperidin-1-yl)sulfonyl)-4,5-dihydro-1H-pyrazole-1-carboxamidine], 223 to 225 °C; that for `CNC(=NS(=O)(=O)N(C)C)N1CC(c2ccccc2F)C(c2ccc(Cl)cc2)=N1` (stereo not drawn) [Example 84, 3-(4-Chlorophenyl)-N′-((dimethylamino)sulfonyl)-4-(2-fluorophenyl)-N-methyl-4,5-dihydro-1H-pyrazole-1-carboxamidine], 173 to 175 °C. On to `CNC(=NS(=O)(=O)N(C)C)N1CC(c2cccc(F)c2)C(c2ccc(Cl)cc2)=N1` (stereo not drawn) [Example 85, 3-(4-Chlorophenyl)-N′-((dimethylamino)sulfonyl)-4-(3-fluorophenyl)-N-methyl-4,5-dihydro-1H-pyrazole-1-carboxamidine], for which the melting point was found to be 110 °C.
